Test system: human TAP
Experiment: NADH-coupled steady-state ATP hydrolysis (ATPase) assay of purified TAP
Assay type: biochemical
Conditions: 28 °C; for Stimulation of ATP hydrolysis by shortened b27 peptides: TAP 0.5 µM, peptides 20 µM, ATP 3 mM, means of three technical replicates of three biological replicates (n = 9), one-way ANOVA, Fig. 4A
Experimental: Steady-state ATP hydrolysis activity was measured using a nicotinamide adenine dinucleotide (NADH)-coupled assay. Purified TAP was diluted to a final concentration of 0.5 µM in freshly prepared reaction buffer containing 50 mM HEPES (pH 8.0 with KOH), 150 mM KCl, 2 mM MgCl2, 2 mM DTT, 0.004% (w/v) digitonin, 60 µg mL^−1 pyruvate kinase (Roche), 32 µg mL^−1 lactate dehydrogenase (Roche), 9 mM phosphoenolpyruvate and 150 µM NADH. Peptide substrates were added to a final concentration of 20 µM unless specified otherwise. Then, 30 µL aliquots were dispensed into Corning 384-well Black/Clear Flat Bottom Polystyrene NBS Microplates, and reactions were initiated by the addition of 3 mM ATP. NADH consumption was measured by monitoring the rate of NADH fluorescence depletion at λex = 340 nm and λem = 445 nm at 28 °C using an Infinite M1000 microplate reader (Tecan). Data were converted to ATP turnover with an NADH standard curve. Technical replicates were measured in parallel from the same protein preparation on the same day and biological replicates were measured from different protein preparations from different cells on different days.

## b27″(Q): 7-mer modified b27 peptide lacking the lysine and the adjacent serine (RRYQTEL)
  Stimulation of ATP hydrolysis by shortened b27 peptides: neither of the 7-mer peptides were able to stimulate ATP hydrolysis and not

## b27: 9-mer peptide RRYQKSTEL, well-characterized substrate transported by TAP and presented by HLA-B27 [reference compound]
0.5 µM TAP, 3 mM ATP, pH 8.0, three technical replicates (n = 3), Fig. 1B
  ATPase activity as a function of b27 concentration: stimulated in a dose-dependent manner

## RRYSTEL [b27″, 7-mer modified b27 peptide lacking the lysine and the adjacent glutamine]
  Stimulation of ATP hydrolysis by shortened b27 peptides: neither of the 7-mer peptides were able to stimulate ATP hydrolysis and not

## RRYQSTEL [b27′, 8-mer modified b27 peptide lacking the central lysine at position five]
  Stimulation of ATP hydrolysis by shortened b27 peptides: stimulated ATP hydrolysis
Listed as B27′
  Stimulation of ATP hydrolysis by shortened b27 peptides: increased the ATPase activity of TAP to a slightly greater extend compared to b27
